Test results published in ChEMBL document CHEMBL5625252, “Synthesis of peptidomimetics as antibiotic adjuvants for combination with aztreonam to combat MDR Pseudomonas aeruginosa” (Eur J Med Chem, 2023).
Converted amounts (≈) assume the structure as drawn.

Tests used:
Assay type in all cases: functional
Pseudomonas aeruginosa [1] = test: Synergistic antibacterial activity against Pseudomonas aeruginosa PAO1 assessed as aztreonam MIC upto […] ug/ml incubated for 18 hrs by checkerboard method (reference value: 8 microg/ml)
Pseudomonas aeruginosa [2] = test: Antibacterial activity against BL (+) Pseudomonas aeruginosa ATCC 27853 assessed as inhibition of bacterial growth incubated for 18 hrs by agar dilution method
Klebsiella pneumoniae [3] = test: Antibacterial activity against NDM-1 (+) Klebsiella pneumoniae 2146 assessed as inhibition of bacterial growth incubated for 18 hrs by agar dilution method
Escherichia coli [4] = test: Antibacterial activity against NDM-1 (+) Escherichia coli CDC 1001728 assessed as inhibition of bacterial growth incubated for 18 hrs by agar dilution method
Escherichia coli [5] = test: Antibacterial activity against ESBLs (-) Escherichia coli ATCC 25922 assessed as inhibition of bacterial growth incubated for 18 hrs by agar dilution method
Escherichia coli [6] = test: Antibacterial activity against ESBLs (+) Escherichia coli 16-1 assessed as inhibition of bacterial growth incubated for 18 hrs by agar dilution method
Klebsiella pneumoniae [7] = test: Antibacterial activity against NDM-1 (+) Klebsiella pneumoniae 09-20 assessed as inhibition of bacterial growth incubated for 18 hrs by agar dilution method
Klebsiella pneumoniae [8] = test: Antibacterial activity against ESBLs (+) Klebsiella pneumoniae ATCC 700603 assessed as inhibition of bacterial growth incubated for 18 hrs by agar dilution method
Pseudomonas aeruginosa [9] = test: Antibacterial activity against Pseudomonas aeruginosa PAO1 assessed as inhibition of bacterial growth incubated for 18 hrs by agar dilution method
Escherichia coli [10] = test: Antibacterial activity against mcr-1 (+) Escherichia coli 08-85 assessed as inhibition of bacterial growth incubated for 18 hrs by agar dilution method
Klebsiella pneumoniae [11] = test: Antibacterial activity against ESBLs (+) Klebsiella pneumoniae 16-14 assessed as inhibition of bacterial growth incubated for 18 hrs by agar dilution method
Pseudomonas aeruginosa [12] = test: Antibacterial activity against Pseudomonas aeruginosa 23-Y364 assessed as inhibition of bacterial growth incubated for 18 hrs by agar dilution method
Pseudomonas aeruginosa [13] = test: Antibacterial activity against Pseudomonas aeruginosa 23-Y539 assessed as inhibition of bacterial growth incubated for 18 hrs by agar dilution method
Pseudomonas aeruginosa [14] = test: Antibacterial activity against Pseudomonas aeruginosa 19-46 assessed as inhibition of bacterial growth incubated for 18 hrs by agar dilution method
Pseudomonas aeruginosa [15] = test: Antibacterial activity against Pseudomonas aeruginosa 23-Y417 assessed as inhibition of bacterial growth incubated for 18 hrs by agar dilution method; conditions: read-out: MIC
Pseudomonas aeruginosa [16] = test: Antibacterial activity against Pseudomonas aeruginosa 12-1 assessed as inhibition of bacterial growth incubated for 18 hrs by agar dilution method
Pseudomonas aeruginosa [17] = test: Antibacterial activity against Pseudomonas aeruginosa 19-55 assessed as inhibition of bacterial growth incubated for 18 hrs by agar dilution method
Pseudomonas aeruginosa [18] = test: Antibacterial activity against Pseudomonas aeruginosa 23-Y372 assessed as inhibition of bacterial growth incubated for 18 hrs by agar dilution method
Pseudomonas aeruginosa [19] = test: Antibacterial activity against Pseudomonas aeruginosa 23-Y511 assessed as inhibition of bacterial growth incubated for 18 hrs by agar dilution method
Pseudomonas aeruginosa [20] = test: Antibacterial activity against Pseudomonas aeruginosa 21-8 assessed as inhibition of bacterial growth incubated for 18 hrs by agar dilution method
Pseudomonas aeruginosa [21] = test: Antibacterial activity against Pseudomonas aeruginosa 21-2 assessed as inhibition of bacterial growth incubated for 18 hrs by agar dilution method
Pseudomonas aeruginosa [22] = test: Antibacterial activity against Pseudomonas aeruginosa 13-35 assessed as inhibition of bacterial growth incubated for 18 hrs by agar dilution method
Pseudomonas aeruginosa [23] = test: Antibacterial activity against Pseudomonas aeruginosa 16-2 assessed as inhibition of bacterial growth incubated for 18 hrs by agar dilution method
Pseudomonas aeruginosa [24] = test: Antibacterial activity against Pseudomonas aeruginosa 16-11 assessed as inhibition of bacterial growth incubated for 18 hrs by agar dilution method
Pseudomonas aeruginosa [25] = test: Antibacterial activity against Pseudomonas aeruginosa 13-17 assessed as inhibition of bacterial growth incubated for 18 hrs by agar dilution method
Pseudomonas aeruginosa [26] = test: Antibacterial activity against Pseudomonas aeruginosa 23-Y122 assessed as inhibition of bacterial growth incubated for 18 hrs by agar dilution method
Pseudomonas aeruginosa [27] = test: Antibacterial activity against Pseudomonas aeruginosa 21-7 assessed as inhibition of bacterial growth incubated for 18 hrs by agar dilution method
Pseudomonas aeruginosa [28] = test: Antibacterial activity against Pseudomonas aeruginosa 13-3 assessed as inhibition of bacterial growth incubated for 18 hrs by agar dilution method

## NCCC[C@H](NC(=O)CCc1cc(F)cc(F)c1)C(=O)Nc1ccc2ccccc2c1
Pseudomonas aeruginosa [1]
  MIC: 2 µg/mL

## COc1ccc(CCC(=O)N[C@@H](CCCN)C(=O)Nc2ccc3ccccc3c2)cc1
Pseudomonas aeruginosa [1]
  MIC: 8 µg/mL

## C[C@H]1[C@H](NC(=O)/C(=N\OCC(=O)N2CCC(C(=O)O)CC2)c2csc(N)n2)C(=O)N1S(=O)(=O)O
Pseudomonas aeruginosa [2]
  MIC: > 64 µg/mL
Klebsiella pneumoniae [3]
  MIC: > 64 µg/mL
Escherichia coli [4]
  MIC: 16 µg/mL (≈ 30.9 µM)
Escherichia coli [5]
  MIC: 4 µg/mL (≈ 7.71 µM)
Escherichia coli [6]
  MIC: 16 µg/mL (≈ 30.9 µM)
Klebsiella pneumoniae [7]
  MIC: > 64 µg/mL
Klebsiella pneumoniae [8]
  MIC: > 64 µg/mL
Pseudomonas aeruginosa [9]
  MIC: > 64 µg/mL
Escherichia coli [10]
  MIC: > 64 µg/mL
Klebsiella pneumoniae [11]
  MIC: > 64 µg/mL

## NCCC[C@H](NC(=O)CCc1ccc(C(F)(F)F)cc1)C(=O)Nc1ccc2ccccc2c1
Pseudomonas aeruginosa [1]
  MIC: 8 µg/mL

## POLYMYXIN B
Pseudomonas aeruginosa [2]
  MIC: 4 µg/mL
Klebsiella pneumoniae [3]
  MIC: 1 µg/mL
Escherichia coli [4]
  MIC: 1 µg/mL
Escherichia coli [5]
  MIC: 1 µg/mL
Escherichia coli [6]
  MIC: 0.25 µg/mL
Klebsiella pneumoniae [7]
  MIC: 16 µg/mL
Klebsiella pneumoniae [8]
  MIC: 2 µg/mL
Pseudomonas aeruginosa [9]
  MIC: 8 µg/mL
Escherichia coli [10]
  MIC: 8 µg/mL
Klebsiella pneumoniae [11]
  MIC: 1 µg/mL

## CC(C)[C@H](O/N=C(\C(=O)N[C@@H]1C(=O)N(OS(=O)(=O)O)C1(C)C)c1csc(N)n1)C(=O)O
Pseudomonas aeruginosa [2]
  MIC: 8 µg/mL (≈ 16.7 µM)
Klebsiella pneumoniae [3]
  MIC: 1 µg/mL (≈ 2.09 µM)
Escherichia coli [4]
  MIC: 0.5 µg/mL (≈ 1.04 µM)
Escherichia coli [5]
  MIC: 0.25 µg/mL (≈ 0.521 µM)
Escherichia coli [6]
  MIC: 0.125 µg/mL (≈ 0.261 µM)
Klebsiella pneumoniae [7]
  MIC: 0.25 µg/mL (≈ 0.521 µM)
Klebsiella pneumoniae [8]
  MIC: 2 µg/mL (≈ 4.17 µM)
Pseudomonas aeruginosa [9]
  MIC: 4 µg/mL (≈ 8.34 µM)
Escherichia coli [10]
  MIC: 0.25 µg/mL (≈ 0.521 µM)
Klebsiella pneumoniae [11]
  MIC: 0.125 µg/mL (≈ 0.261 µM)

## C[C@@H](O)[C@H]1C(=O)N2C(C(=O)O)=C(S[C@@H]3CN[C@H](C(=O)N(C)C)C3)[C@H](C)[C@H]12 [MEROPENEM]
Pseudomonas aeruginosa [12]
  MIC: 2 µg/mL (≈ 5.22 µM)
Pseudomonas aeruginosa [13]
  MIC: 1 µg/mL (≈ 2.61 µM)
Pseudomonas aeruginosa [14]
  MIC: 128 µg/mL (≈ 334 µM)
Pseudomonas aeruginosa [15]
  MIC: 16 µg/mL (≈ 41.7 µM)
Pseudomonas aeruginosa [16]
  MIC: 16 µg/mL (≈ 41.7 µM)
Pseudomonas aeruginosa [17]
  MIC: 128 µg/mL (≈ 334 µM)
Pseudomonas aeruginosa [18]
  MIC: > 256 µg/mL
Pseudomonas aeruginosa [19]
  MIC: 0.125 µg/mL (≈ 0.326 µM)
Pseudomonas aeruginosa [20]
  MIC: 0.5 µg/mL (≈ 1.3 µM)
Pseudomonas aeruginosa [21]
  MIC: 16 µg/mL (≈ 41.7 µM)
Pseudomonas aeruginosa [22]
  MIC: 32 µg/mL (≈ 83.4 µM)
Pseudomonas aeruginosa [23]
  MIC: 16 µg/mL (≈ 41.7 µM)
Pseudomonas aeruginosa [24]
  MIC: 1 µg/mL (≈ 2.61 µM)
Pseudomonas aeruginosa [9]
  MIC: 2 µg/mL (≈ 5.22 µM)
Pseudomonas aeruginosa [25]
  MIC: 32 µg/mL (≈ 83.4 µM)
Pseudomonas aeruginosa [26]
  MIC: 128 µg/mL (≈ 334 µM)
Pseudomonas aeruginosa [27]
  MIC: 16 µg/mL (≈ 41.7 µM)
Pseudomonas aeruginosa [28]
  MIC: 32 µg/mL (≈ 83.4 µM)

## C[C@H](O/N=C(\C(=O)N[C@@H]1C(=O)N(OS(=O)(=O)O)C1(C)C)c1csc(N)n1)C(=O)O
Pseudomonas aeruginosa [2]
  MIC: 16 µg/mL (≈ 35.4 µM)
Klebsiella pneumoniae [3]
  MIC: 4 µg/mL (≈ 8.86 µM)
Escherichia coli [5]
  MIC: 0.25 µg/mL (≈ 0.554 µM)
Escherichia coli [6]
  MIC: 0.125 µg/mL (≈ 0.277 µM)
Klebsiella pneumoniae [7]
  MIC: 0.5 µg/mL (≈ 1.11 µM)
Klebsiella pneumoniae [8]
  MIC: 8 µg/mL (≈ 17.7 µM)
Pseudomonas aeruginosa [9]
  MIC: 16 µg/mL (≈ 35.4 µM)
Escherichia coli [10]
  MIC: 0.25 µg/mL (≈ 0.554 µM)
Klebsiella pneumoniae [11]
  MIC: 0.25 µg/mL (≈ 0.554 µM)

## C=CCO/N=C(\C(=O)N[C@@H]1C(=O)N(S(=O)(=O)O)[C@H]1C)c1nsc(N)n1
Pseudomonas aeruginosa [2]
  MIC: > 64 µg/mL
Klebsiella pneumoniae [3]
  MIC: > 64 µg/mL
Escherichia coli [4]
  MIC: 64 µg/mL (≈ 164 µM)
Escherichia coli [5]
  MIC: 8 µg/mL (≈ 20.5 µM)
Escherichia coli [6]
  MIC: 16 µg/mL (≈ 41 µM)
Klebsiella pneumoniae [7]
  MIC: > 64 µg/mL
Klebsiella pneumoniae [8]
  MIC: > 64 µg/mL
Pseudomonas aeruginosa [9]
  MIC: 64 µg/mL (≈ 164 µM)
Escherichia coli [10]
  MIC: > 64 µg/mL
Klebsiella pneumoniae [11]
  MIC: > 64 µg/mL

## C[C@H]1[C@H](NC(=O)/C(=N\OCC(=O)N2CCC[C@@H]2C(=O)O)c2nsc(N)n2)C(=O)N1S(=O)(=O)O
Pseudomonas aeruginosa [2]
  MIC: > 64 µg/mL
Klebsiella pneumoniae [3]
  MIC: > 64 µg/mL
Escherichia coli [4]
  MIC: 8 µg/mL (≈ 15.8 µM)
Escherichia coli [5]
  MIC: 1 µg/mL (≈ 1.98 µM)
Escherichia coli [6]
  MIC: 1 µg/mL (≈ 1.98 µM)
Klebsiella pneumoniae [7]
  MIC: 16 µg/mL (≈ 31.7 µM)
Klebsiella pneumoniae [8]
  MIC: > 64 µg/mL
Pseudomonas aeruginosa [9]
  MIC: > 64 µg/mL
Escherichia coli [10]
  MIC: > 64 µg/mL
Klebsiella pneumoniae [11]
  MIC: > 64 µg/mL

## CCOC(=O)[C@H](CCc1ccccc1)NC(=O)[C@H](CCCN)NC(=O)c1ccc2ccccc2c1
Pseudomonas aeruginosa [1]
  MIC: 8 µg/mL

## C[C@H]1[C@H](NC(=O)/C(=N\OCC(=O)N2CCC[C@@H]2C(=O)O)c2csc(N)n2)C(=O)N1S(=O)(=O)O
Pseudomonas aeruginosa [2]
  MIC: > 64 µg/mL
Klebsiella pneumoniae [3]
  MIC: > 64 µg/mL
Escherichia coli [4]
  MIC: 8 µg/mL (≈ 15.9 µM)
Escherichia coli [5]
  MIC: 0.12 µg/mL (≈ 0.238 µM)
Escherichia coli [6]
  MIC: 0.12 µg/mL (≈ 0.238 µM)
Klebsiella pneumoniae [7]
  MIC: 2 µg/mL (≈ 3.96 µM)
Klebsiella pneumoniae [8]
  MIC: > 64 µg/mL
Pseudomonas aeruginosa [9]
  MIC: 32 µg/mL (≈ 63.4 µM)
Escherichia coli [10]
  MIC: > 64 µg/mL
Klebsiella pneumoniae [11]
  MIC: 16 µg/mL (≈ 31.7 µM)

## NCCC[C@H](NC(=O)CCCc1ccccc1)C(=O)Nc1ccc2ccccc2c1
Pseudomonas aeruginosa [1]
  MIC: 8 µg/mL

## NCCC[C@H](NCc1ccc2ccccc2c1)C(=O)N[C@@H](CCc1ccccc1)C(=O)O
Pseudomonas aeruginosa [1]
  MIC: 8 µg/mL

## COC(=O)[C@H](Cc1ccccc1)NC(=O)[C@H](CCCN)NC(=O)c1ccc2ccccc2c1
Pseudomonas aeruginosa [1]
  MIC: 8 µg/mL

## NCCC[C@H](NC(=O)CCc1ccc(Cl)cc1)C(=O)Nc1ccc2ccccc2c1
Pseudomonas aeruginosa [1]
  MIC: 8 µg/mL
